# Results reported in article PMC6199309, “A therapeutic approach to pantothenate kinase associated neurodegeneration” (Nature Communications, 2018).
# Read-outs that look alike come from different tables or passages of the source.
# Legend:
# GRK3 = target: T1, GRK3 (Homo sapiens, UniProt P35626); experiment: KINOMEscan; assay type: binding; details: read-out: %Ctrl @ 10000nM
# T1 construct: DNA tag for qPCR (T7 phage fusion or DNA label); purchased DiscoverX KdELECT; host or cells: E. coli BL21-derived (T7 phage) or HEK-293
# [1] = target: T2, RSK3(Kin.Dom.2-C-terminal) (Homo sapiens, UniProt Q15349); experiment: KINOMEscan; assay type: binding; details: read-out: %Ctrl @ 10000nM
# T2 construct: RSK3(Kin.Dom.2-C-terminal); purchased DiscoverX KINOMEscan
# ERK1 = target: T3, ERK1 (Homo sapiens, UniProt P27361); experiment: KINOMEscan; assay type: binding; details: read-out: %Ctrl @ 10000nM
# T3 construct: purchased DiscoverX KINOMEscan
# MAPKAPK2 = target: T4, MAPKAPK2 (Homo sapiens, UniProt P49137); experiment: KINOMEscan; assay type: binding; details: read-out: %Ctrl @ 10000nM
# T4 construct: purchased DiscoverX KINOMEscan
# [2] = target: T5, ABL1(Y253F)-phosphorylated (Homo sapiens, UniProt P00519, Y253F); experiment: KINOMEscan; assay type: binding; details: read-out: %Ctrl @ 10000nM
# T5 construct: purchased DiscoverX KINOMEscan
# FLT3(N841I) = target: T6, FLT3(N841I) (Homo sapiens, UniProt P36888, N841I); experiment: KINOMEscan; assay type: binding; details: read-out: %Ctrl @ 10000nM
# T6 construct: purchased DiscoverX KINOMEscan
# ERK5 = target: T7, ERK5 (Homo sapiens, UniProt Q13164); experiment: KINOMEscan; assay type: binding; details: read-out: %Ctrl @ 10000nM
# T7 construct: purchased DiscoverX KINOMEscan
# NEK3 = target: T8, NEK3 (Homo sapiens, UniProt P51956); experiment: KINOMEscan; assay type: binding; details: read-out: %Ctrl @ 10000nM
# T8 construct: purchased DiscoverX KINOMEscan
# [3] = target: T9, ABL1(M351T)-phosphorylated (Homo sapiens, UniProt P00519, M351T); experiment: KINOMEscan; assay type: binding; details: read-out: %Ctrl @ 10000nM
# T9 construct: purchased DiscoverX KINOMEscan
# MKNK2 = target: T10, MKNK2 (Homo sapiens, UniProt Q9HBH9); experiment: KINOMEscan; assay type: binding; details: read-out: %Ctrl @ 10000nM
# T10 construct: purchased DiscoverX KINOMEscan
# CAMK2D = target: T11, CAMK2D (Homo sapiens, UniProt Q13557); experiment: KINOMEscan; assay type: binding; details: read-out: %Ctrl @ 10000nM
# T11 construct: purchased DiscoverX KINOMEscan
# IGF1R = target: T12, IGF1R (Homo sapiens, UniProt P08069); experiment: KINOMEscan; assay type: binding; details: read-out: %Ctrl @ 10000nM
# T12 construct: purchased DiscoverX KINOMEscan
# CHEK1 = target: T13, CHEK1 (Homo sapiens, UniProt O14757); experiment: KINOMEscan; assay type: binding; details: read-out: %Ctrl @ 10000nM
# T13 construct: purchased DiscoverX KINOMEscan
# GRK7 = target: T14, GRK7 (Homo sapiens, UniProt Q8WTQ7); experiment: KINOMEscan; assay type: binding; details: read-out: %Ctrl @ 10000nM
# T14 construct: purchased DiscoverX KINOMEscan
# MUSK = target: T15, MUSK (Homo sapiens, UniProt O15146); experiment: KINOMEscan; assay type: binding; details: read-out: %Ctrl @ 10000nM
# T15 construct: purchased DiscoverX KINOMEscan
# [4] = target: T16, RPS6KA5(Kin.Dom.1-N-terminal) (Homo sapiens, UniProt O75582); experiment: KINOMEscan; assay type: binding; details: read-out: %Ctrl @ 10000nM
# T16 construct: RPS6KA5(Kin.Dom.1-N-terminal); purchased DiscoverX KINOMEscan
# [5] = target: T17, RSK4(Kin.Dom.1-N-terminal) (Homo sapiens, UniProt Q9UK32); experiment: KINOMEscan; assay type: binding; details: read-out: %Ctrl @ 10000nM
# T17 construct: RSK4(Kin.Dom.1-N-terminal); purchased DiscoverX KINOMEscan
# ERK3 = target: T18, ERK3 (Homo sapiens, UniProt Q16659); experiment: KINOMEscan; assay type: binding; details: read-out: %Ctrl @ 10000nM
# T18 construct: purchased DiscoverX KINOMEscan
# PIK3CA(M1043I) = target: T19, PIK3CA(M1043I) (Homo sapiens, UniProt P42336, M1043I); experiment: KINOMEscan; assay type: binding; details: read-out: %Ctrl @ 10000nM
# T19 construct: purchased DiscoverX KINOMEscan
# [6] = Pharmacokinetics in plasma of male BALB/c mice; assay type: in vivo; details: mouse
# Protocol: Supplementary Table 2. […] Mean pharmacokinetic parameters of PZ- […]
# administration to male BALB/c micea.
# Dose Tmax C0/ Cmaxc AUClast AUCinf T1/2 CL Vss %Fd […]
# aPharmacokinetics measurements performed by Sai Life Sciences Limited. […]
# cBack extrapolated concentration for i.v. group. dBioavailability was calculated based on AUClast.
# TRKC = target: T20, TRKC (Homo sapiens, UniProt Q16288); experiment: KINOMEscan; assay type: binding; details: read-out: %Ctrl @ 10000nM
# T20 construct: purchased DiscoverX KINOMEscan
# ERBB4 = target: T21, ERBB4 (Homo sapiens, UniProt Q15303); experiment: KINOMEscan; assay type: binding; details: read-out: %Ctrl @ 10000nM
# T21 construct: purchased DiscoverX KINOMEscan
# PRP4 = target: T22, PRP4 (Homo sapiens, UniProt Q13523); experiment: KINOMEscan; assay type: binding; details: read-out: %Ctrl @ 10000nM
# T22 construct: purchased DiscoverX KINOMEscan
# CDKL1 = target: T23, CDKL1 (Homo sapiens, UniProt Q00532); experiment: KINOMEscan; assay type: binding; details: read-out: %Ctrl @ 10000nM
# T23 construct: purchased DiscoverX KINOMEscan
# MAP3K2 = target: T24, MAP3K2 (Homo sapiens, UniProt Q9Y2U5); experiment: KINOMEscan; assay type: binding; details: read-out: %Ctrl @ 10000nM
# T24 construct: purchased DiscoverX KINOMEscan
# PIK3CA(I800L) = target: T25, PIK3CA(I800L) (Homo sapiens, UniProt P42336, I800L); experiment: KINOMEscan; assay type: binding; details: read-out: %Ctrl @ 10000nM
# T25 construct: purchased DiscoverX KINOMEscan
# PIM2 = target: T26, PIM2 (Homo sapiens, UniProt Q9P1W9); experiment: KINOMEscan; assay type: binding; details: read-out: %Ctrl @ 10000nM
# T26 construct: purchased DiscoverX KINOMEscan
# EPHB1 = target: T27, EPHB1 (Homo sapiens, UniProt P54762); experiment: KINOMEscan; assay type: binding; details: read-out: %Ctrl @ 10000nM
# T27 construct: purchased DiscoverX KINOMEscan
# SgK110 = target: T28, SgK110 (Homo sapiens, UniProt P0C264); experiment: KINOMEscan; assay type: binding; details: read-out: %Ctrl @ 10000nM
# T28 construct: purchased DiscoverX KINOMEscan
# [7] = target: T29, ABL1(H396P)-phosphorylated (Homo sapiens, UniProt P00519, H396P); experiment: KINOMEscan; assay type: binding; details: read-out: %Ctrl @ 10000nM
# T29 construct: purchased DiscoverX KINOMEscan
# INSR = target: T30, INSR (Homo sapiens, UniProt P06213); experiment: KINOMEscan; assay type: binding; details: read-out: %Ctrl @ 10000nM
# T30 construct: purchased DiscoverX KINOMEscan
# TNK1 = target: T31, TNK1 (Homo sapiens, UniProt Q13470); experiment: KINOMEscan; assay type: binding; details: read-out: %Ctrl @ 10000nM
# T31 construct: purchased DiscoverX KINOMEscan
# TAOK1 = target: T32, TAOK1 (Homo sapiens, UniProt Q7L7X3); experiment: KINOMEscan; assay type: binding; details: read-out: %Ctrl @ 10000nM
# T32 construct: purchased DiscoverX KINOMEscan
# HPK1 = target: T33, HPK1 (Homo sapiens, UniProt Q92918); experiment: KINOMEscan; assay type: binding; details: read-out: %Ctrl @ 10000nM
# T33 construct: purchased DiscoverX KINOMEscan
# NEK7 = target: T34, NEK7 (Homo sapiens, UniProt Q8TDX7); experiment: KINOMEscan; assay type: binding; details: read-out: %Ctrl @ 10000nM
# T34 construct: purchased DiscoverX KINOMEscan
# BTK = target: T35, BTK (Homo sapiens, UniProt Q06187); experiment: KINOMEscan; assay type: binding; details: read-out: %Ctrl @ 10000nM
# T35 construct: purchased DiscoverX KINOMEscan
# T35 sequence (Q06187 whole entry): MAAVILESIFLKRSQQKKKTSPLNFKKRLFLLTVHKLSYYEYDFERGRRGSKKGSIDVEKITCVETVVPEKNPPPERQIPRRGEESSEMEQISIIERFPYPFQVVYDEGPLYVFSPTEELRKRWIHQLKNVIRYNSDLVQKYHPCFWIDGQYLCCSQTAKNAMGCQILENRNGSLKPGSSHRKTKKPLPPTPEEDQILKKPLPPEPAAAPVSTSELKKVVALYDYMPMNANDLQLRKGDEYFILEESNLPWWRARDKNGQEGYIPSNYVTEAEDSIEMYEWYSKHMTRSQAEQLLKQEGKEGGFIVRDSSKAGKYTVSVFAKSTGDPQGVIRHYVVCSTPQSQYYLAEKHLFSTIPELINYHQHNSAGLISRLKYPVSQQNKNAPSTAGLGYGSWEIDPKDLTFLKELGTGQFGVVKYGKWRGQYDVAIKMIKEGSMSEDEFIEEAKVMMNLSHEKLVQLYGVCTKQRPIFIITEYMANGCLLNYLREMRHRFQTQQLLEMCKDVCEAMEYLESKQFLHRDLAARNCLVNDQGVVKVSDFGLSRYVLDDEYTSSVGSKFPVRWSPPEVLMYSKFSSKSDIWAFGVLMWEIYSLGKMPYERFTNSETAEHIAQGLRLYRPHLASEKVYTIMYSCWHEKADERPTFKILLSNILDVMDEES
# T34 sequence (Q8TDX7 whole entry): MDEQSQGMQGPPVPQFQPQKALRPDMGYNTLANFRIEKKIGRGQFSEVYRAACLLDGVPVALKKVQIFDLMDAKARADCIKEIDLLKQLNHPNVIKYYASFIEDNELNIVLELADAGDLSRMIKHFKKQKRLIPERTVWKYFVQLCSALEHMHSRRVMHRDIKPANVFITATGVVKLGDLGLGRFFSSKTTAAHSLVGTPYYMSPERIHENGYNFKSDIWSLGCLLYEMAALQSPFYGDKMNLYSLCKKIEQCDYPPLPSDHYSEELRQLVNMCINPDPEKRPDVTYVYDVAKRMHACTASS
# T13 sequence (O14757 whole entry): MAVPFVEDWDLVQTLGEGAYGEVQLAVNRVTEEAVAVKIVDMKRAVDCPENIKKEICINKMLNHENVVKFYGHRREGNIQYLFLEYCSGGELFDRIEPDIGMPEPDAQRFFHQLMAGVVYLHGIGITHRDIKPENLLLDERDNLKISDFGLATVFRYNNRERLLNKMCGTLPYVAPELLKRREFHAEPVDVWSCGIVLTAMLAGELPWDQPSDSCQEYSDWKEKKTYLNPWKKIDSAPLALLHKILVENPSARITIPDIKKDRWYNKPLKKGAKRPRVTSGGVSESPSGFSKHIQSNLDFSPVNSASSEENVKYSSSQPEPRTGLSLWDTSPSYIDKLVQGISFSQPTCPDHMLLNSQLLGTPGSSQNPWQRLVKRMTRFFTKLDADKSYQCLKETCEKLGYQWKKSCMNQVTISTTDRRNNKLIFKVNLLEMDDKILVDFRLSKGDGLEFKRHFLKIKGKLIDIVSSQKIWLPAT
# T32 sequence (Q7L7X3 whole entry): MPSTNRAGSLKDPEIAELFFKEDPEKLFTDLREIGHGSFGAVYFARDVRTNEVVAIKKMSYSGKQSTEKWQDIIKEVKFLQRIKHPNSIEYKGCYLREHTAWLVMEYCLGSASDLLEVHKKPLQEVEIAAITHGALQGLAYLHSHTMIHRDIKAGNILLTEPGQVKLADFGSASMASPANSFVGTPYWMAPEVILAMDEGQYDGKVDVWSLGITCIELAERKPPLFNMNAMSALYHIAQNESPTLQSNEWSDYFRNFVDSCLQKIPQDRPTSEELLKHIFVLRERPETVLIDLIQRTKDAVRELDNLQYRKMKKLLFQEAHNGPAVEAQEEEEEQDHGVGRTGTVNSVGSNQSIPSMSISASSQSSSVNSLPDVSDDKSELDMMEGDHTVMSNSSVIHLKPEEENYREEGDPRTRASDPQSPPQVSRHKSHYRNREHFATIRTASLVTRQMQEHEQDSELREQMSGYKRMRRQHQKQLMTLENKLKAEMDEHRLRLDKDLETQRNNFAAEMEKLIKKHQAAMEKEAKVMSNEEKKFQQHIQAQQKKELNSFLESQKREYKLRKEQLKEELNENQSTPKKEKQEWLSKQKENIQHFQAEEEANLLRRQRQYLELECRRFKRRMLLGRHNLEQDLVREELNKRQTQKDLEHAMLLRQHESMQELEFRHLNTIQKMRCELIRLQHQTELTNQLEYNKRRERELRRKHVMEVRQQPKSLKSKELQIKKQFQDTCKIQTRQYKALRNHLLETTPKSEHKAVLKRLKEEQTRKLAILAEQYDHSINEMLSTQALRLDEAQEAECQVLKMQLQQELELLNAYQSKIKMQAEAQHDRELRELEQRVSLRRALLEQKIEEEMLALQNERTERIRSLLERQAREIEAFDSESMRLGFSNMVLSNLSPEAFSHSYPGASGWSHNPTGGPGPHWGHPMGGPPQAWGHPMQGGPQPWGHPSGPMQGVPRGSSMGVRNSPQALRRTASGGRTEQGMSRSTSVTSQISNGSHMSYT
# T20 sequence (Q16288 32-839): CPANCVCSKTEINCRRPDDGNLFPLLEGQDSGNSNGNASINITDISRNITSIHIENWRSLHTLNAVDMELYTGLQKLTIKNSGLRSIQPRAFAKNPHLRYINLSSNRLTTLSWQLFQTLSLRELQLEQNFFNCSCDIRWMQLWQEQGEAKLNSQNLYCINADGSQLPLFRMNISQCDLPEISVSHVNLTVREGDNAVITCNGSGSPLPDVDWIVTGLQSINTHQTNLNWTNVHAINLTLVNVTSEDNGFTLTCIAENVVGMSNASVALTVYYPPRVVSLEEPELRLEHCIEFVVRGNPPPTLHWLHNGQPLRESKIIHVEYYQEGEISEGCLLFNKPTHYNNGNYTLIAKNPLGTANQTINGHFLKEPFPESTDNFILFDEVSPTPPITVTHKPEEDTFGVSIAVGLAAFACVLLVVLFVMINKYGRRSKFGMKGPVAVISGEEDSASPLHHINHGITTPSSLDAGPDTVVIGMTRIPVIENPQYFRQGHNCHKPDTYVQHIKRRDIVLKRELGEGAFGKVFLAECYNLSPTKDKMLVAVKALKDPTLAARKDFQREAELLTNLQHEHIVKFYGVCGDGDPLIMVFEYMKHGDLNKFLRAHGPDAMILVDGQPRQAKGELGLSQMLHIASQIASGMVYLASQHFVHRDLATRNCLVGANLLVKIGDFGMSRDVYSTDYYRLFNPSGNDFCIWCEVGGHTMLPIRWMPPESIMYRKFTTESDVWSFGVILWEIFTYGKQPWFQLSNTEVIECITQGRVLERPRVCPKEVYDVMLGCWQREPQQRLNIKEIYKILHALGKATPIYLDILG
# T28 sequence (P0C264 whole entry): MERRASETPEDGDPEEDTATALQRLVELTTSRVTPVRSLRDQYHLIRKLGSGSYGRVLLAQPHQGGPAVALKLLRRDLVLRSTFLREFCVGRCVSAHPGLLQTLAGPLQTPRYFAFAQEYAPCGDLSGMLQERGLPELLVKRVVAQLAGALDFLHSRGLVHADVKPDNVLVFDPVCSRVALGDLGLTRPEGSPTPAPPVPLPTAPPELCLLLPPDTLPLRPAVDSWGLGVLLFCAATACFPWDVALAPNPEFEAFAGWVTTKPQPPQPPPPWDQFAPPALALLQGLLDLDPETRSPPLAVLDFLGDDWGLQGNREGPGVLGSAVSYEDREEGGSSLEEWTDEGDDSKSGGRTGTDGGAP
# T15 sequence (O15146 24-869): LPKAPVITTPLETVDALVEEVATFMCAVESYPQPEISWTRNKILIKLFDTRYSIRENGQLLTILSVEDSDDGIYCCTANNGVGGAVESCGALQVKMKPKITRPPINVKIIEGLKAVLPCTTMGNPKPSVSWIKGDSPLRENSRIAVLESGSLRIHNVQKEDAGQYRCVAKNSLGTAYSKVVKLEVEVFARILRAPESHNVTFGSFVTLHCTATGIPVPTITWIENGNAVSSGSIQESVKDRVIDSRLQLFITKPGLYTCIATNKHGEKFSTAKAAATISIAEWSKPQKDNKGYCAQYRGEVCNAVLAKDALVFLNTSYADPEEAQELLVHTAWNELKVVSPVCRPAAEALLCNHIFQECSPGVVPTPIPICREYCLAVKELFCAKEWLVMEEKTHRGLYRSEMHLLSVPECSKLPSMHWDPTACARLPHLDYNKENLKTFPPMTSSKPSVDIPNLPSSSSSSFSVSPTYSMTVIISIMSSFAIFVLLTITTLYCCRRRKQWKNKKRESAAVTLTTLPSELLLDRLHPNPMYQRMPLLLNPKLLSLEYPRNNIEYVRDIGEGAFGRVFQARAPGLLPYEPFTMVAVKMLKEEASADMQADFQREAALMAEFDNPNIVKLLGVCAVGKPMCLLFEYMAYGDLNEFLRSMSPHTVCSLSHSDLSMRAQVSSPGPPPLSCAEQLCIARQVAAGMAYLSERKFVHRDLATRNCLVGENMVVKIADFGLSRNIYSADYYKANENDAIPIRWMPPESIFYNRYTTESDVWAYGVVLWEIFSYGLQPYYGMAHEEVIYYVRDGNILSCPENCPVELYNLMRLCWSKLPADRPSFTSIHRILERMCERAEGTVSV
# T11 sequence (Q13557 whole entry): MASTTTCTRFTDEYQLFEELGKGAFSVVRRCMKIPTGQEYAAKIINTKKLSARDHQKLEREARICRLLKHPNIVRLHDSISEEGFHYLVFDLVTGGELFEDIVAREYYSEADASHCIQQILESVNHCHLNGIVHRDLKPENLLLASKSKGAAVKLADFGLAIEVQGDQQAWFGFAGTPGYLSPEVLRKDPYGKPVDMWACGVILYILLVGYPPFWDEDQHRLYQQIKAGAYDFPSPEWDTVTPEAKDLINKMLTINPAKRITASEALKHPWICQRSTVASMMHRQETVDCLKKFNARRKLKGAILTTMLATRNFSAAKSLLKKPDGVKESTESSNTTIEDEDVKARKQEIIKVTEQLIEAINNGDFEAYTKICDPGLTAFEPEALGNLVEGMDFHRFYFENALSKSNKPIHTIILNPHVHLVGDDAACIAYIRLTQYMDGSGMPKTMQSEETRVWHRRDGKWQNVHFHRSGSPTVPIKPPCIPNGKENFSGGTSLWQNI
compound,measurement,setting,value
"CC(C)c1ccc(CC(=O)N2CCN(c3ccc(C#N)nn3)CC2)cc1 [PZ-2891, 6-(4-(2-(4-isopropylphenyl)acetyl)piperazin-1-yl)pyridazine-3-carbonitrile]",remaining binding at 10 µM,GRK3,35%
same,remaining binding at 10 µM,[1],66%
same,remaining binding at 10 µM,ERK1,91%
same,remaining binding at 10 µM,MAPKAPK2,88%
same,remaining binding at 10 µM,[2],82%
same,remaining binding at 10 µM,FLT3(N841I),86%
same,remaining binding at 10 µM,ERK5,93%
same,remaining binding at 10 µM,NEK3,69%
same,remaining binding at 10 µM,[3],96%
same,remaining binding at 10 µM,MKNK2,79%
same,remaining binding at 10 µM,CAMK2D,91%
same,remaining binding at 10 µM,IGF1R,91%
same,remaining binding at 10 µM,CHEK1,83%
same,remaining binding at 10 µM,GRK7,93%
same,remaining binding at 10 µM,MUSK,95%
same,remaining binding at 10 µM,[4],93%
same,remaining binding at 10 µM,[5],97%
same,remaining binding at 10 µM,ERK3,97%
same,remaining binding at 10 µM,PIK3CA(M1043I),74%
same,half-life,"[6]; intravenous, 2 mg/kg, mice plasma, read-out: T1/2 (mice plasma)",17 min
same,AUC(0-inf),"[6]; plasma, iv, i.v. 2 mg/kg",611 ng·h/mL
same,AUC(0-t),"[6]; plasma, iv, i.v. 2 mg/kg",609 ng·h/mL
same,clearance,"[6]; plasma, iv, i.v. 2 mg/kg",54.5 mL/min/kg
same,C0,"[6]; plasma, iv, i.v. 2 mg/kg, back extrapolated concentration",2810 ng/mL
same,half-life,"[6]; plasma, iv, i.v. 2 mg/kg, read-out: T1/2 (converted)",16.8 min
same,Vd,"[6]; plasma, iv, i.v. 2 mg/kg, read-out: Vss",0.94 L/kg
same,AUC(0-inf),"[6]; plasma, po, p.o. 10 mg/kg",1420 ng·h/mL
same,AUC(0-t),"[6]; plasma, po, p.o. 10 mg/kg",1400 ng·h/mL
same,Cmax,"[6]; plasma, po, p.o. 10 mg/kg",1890 ng/mL
same,Tmax,"[6]; plasma, po, p.o. 10 mg/kg",15 min
same,remaining binding at 10 µM,TRKC,100%
same,remaining binding at 10 µM,ERBB4,100%
same,remaining binding at 10 µM,PRP4,86%
same,remaining binding at 10 µM,CDKL1,74%
same,remaining binding at 10 µM,MAP3K2,96%
same,remaining binding at 10 µM,PIK3CA(I800L),42%
same,remaining binding at 10 µM,PIM2,96%
same,remaining binding at 10 µM,EPHB1,90%
same,remaining binding at 10 µM,SgK110,94%
same,remaining binding at 10 µM,[7],76%
same,remaining binding at 10 µM,INSR,84%
same,remaining binding at 10 µM,TNK1,100%
same,remaining binding at 10 µM,TAOK1,93%
same,remaining binding at 10 µM,HPK1,100%
same,remaining binding at 10 µM,NEK7,75%
same,remaining binding at 10 µM,BTK,94%
